In PubChem BioAssay (NCI):
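Exposure lasted 48 hours, with cells grown in 96-well plates and compounds tested at five concentrations. At the TGI there is no net growth.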

How the values were obtained:
Assay in all cases: NCI tumour cell line growth inhibition, 48 h
KM20L2 colon = system: KM20L2 colon
HT29 colon = system: HT29 colon
LOX IMVI melanoma = system: LOX IMVI melanoma
SNB-78 CNS = system: SNB-78 CNS
DMS 114 small cell lung = system: DMS 114 small cell lung
CCRF-CEM leukemia = system: CCRF-CEM leukemia
SK-MEL-2 melanoma = system: SK-MEL-2 melanoma
CAKI-1 renal = system: CAKI-1 renal
SR leukemia = system: SR leukemia
T-47D breast = system: T-47D breast
PC-3 prostate = system: PC-3 prostate
MDA-MB-231 breast = system: MDA-MB-231 breast

Row | SMILES | TGI (KM20L2 colon) [µM] | TGI (HT29 colon) [µM] | TGI (LOX IMVI melanoma) [µM] | TGI (SNB-78 CNS) [µM] | TGI (DMS 114 small cell lung) [µM] | TGI (CCRF-CEM leukemia) [µM] | TGI (SK-MEL-2 melanoma) [µM] | TGI (CAKI-1 renal) [µM] | TGI (SR leukemia) [µM] | TGI (T-47D breast) [µM] | TGI (PC-3 prostate) [µM] | TGI (MDA-MB-231 breast) [µM]
1 | CSc1nc2c(ncn2C2OC(CO)C(O)C(O)C2O)c(=O)[nH]1 (centres undefined) | > 100 | > 100 | > 100 | > 100 | > 100 | > 100 | > 100 |  |  |  |  | 
2 | C=C1C(=O)C23C(O)CC4C5(C)CCCC4(C(O)OC5)C2C(OC(C)=O)CC1C3O (centres undefined) | 21.2 | 17.6 | 29.2 | 33.9 | 22.2 | 10.7 | 30.3 | 17.8 | 18.5 |  |  | 
3 | O=C(NN1C(=O)CSC1c1cccc(F)c1)c1ccncc1 (centres undefined) | > 100 | > 100 | > 100 | > 100 | > 100 | > 100 | > 100 | > 100 |  |  |  | 
4 | O=C(O)CCCCCCCCC(=O)O | > 500 | > 500 | > 500 | > 500 | > 500 | > 500 | > 500 | > 500 |  |  |  | 
5 | C[n+]1c(/C=C/c2ccc(O)c3ncccc23)[se]c2ccccc21 |  | 20.7 | 9.08 |  |  | 4.22 | 18.3 | 26 | > 21.9 | > 41.8 | 12.7 | 8.33
6 | COc1cc(C2c3cc4c(cc3[C@@H](Nc3ccc5c(c3)OCO5)C3COC(=O)[C@H]23)OCO4)cc(OC)c1O (some centres undefined) | > 24.3 | 6.07 | 3.4 |  |  | 5.37 | 5.96 | 1.43 |  |  |  | 
7 | O=C(O)CN(CC(=O)O)C(C(=O)O)c1ccccc1 (centres undefined) |  | > 100 | > 100 |  |  | > 100 | > 100 | > 100 | > 100 | > 100 | > 100 | > 100
8 | c1ccc2c(c1)CCCC/C2=N/OCC1CO1 (centres undefined) | > 100 | > 100 | > 100 | > 100 | > 100 | > 100 | > 100 |  | > 100 |  |  | 
9 | Cc1cc(NS(=O)(=O)c2ccc(NC(NC(=O)C(C(F)(F)F)C(F)(F)F)(C(F)(F)F)C(F)(F)F)cc2)no1 |  | > 100 | > 100 |  |  | > 100 | > 100 | > 100 | > 100 | > 100 | > 100 | > 100
10 | O=C1c2cccc(O)c2C(=O)c2c(O)cc(CO)cc21 | > 100 | > 100 | > 100 | > 100 | > 100 | > 100 | > 100 | > 100 | > 100 |  |  | 
11 | N#Cc1c(-c2ccccc2)c2c([nH]c1=O)-c1cc([N+](=O)[O-])ccc1CCC2 |  | > 100 | 81.1 |  |  | 94.3 | 59.3 | > 100 | > 100 | 52.2 | > 100 | > 100
12 | O=C(OCC1OC(n2nc(Cn3nnc(-c4cccnc4)n3)n(-c3cccc4ccccc34)c2=S)C(OC(=O)c2ccccc2)C1OC(=O)c1ccccc1)c1ccccc1 (centres undefined) |  | > 100 | > 100 |  |  | > 100 | > 100 | > 100 | > 100 | > 100 | > 100 | > 100
13 | c1ccc([P+](CCCCCCCC[P+](c2ccccc2)(c2ccccc2)c2ccccc2)(c2ccccc2)c2ccccc2)cc1 |  | > 50 | 32.9 |  |  | > 100 | 24.7 | > 100 | 51.6 | > 100 | > 30.8 | > 100
14 | CN(C)c1ccc(Cc2cc3c(O)ccc(O)c3cc(Cc3ccc(N(C)C)cc3)c2=O)cc1 |  | 37.1 | 40.7 |  |  | 7.36 | > 68.9 | 20.5 | > 26.5 | 26.8 | 32.7 | 63.5
15 | O=C(CC(=O)Nc1ccccc1)NNC(c1cc(N=Nc2ccc(Br)cc2)ccc1O)P(O)O (centres undefined) |  | > 10 | > 10 |  |  | 8.25 | > 10 | > 10 | > 10 | > 10 | > 10 | > 10
16 | COc1cccc2c1OCC1Cc3ccccc3OC21 (centres undefined) |  | > 100 | 98.3 |  |  | > 100 | > 100 | > 100 | > 100 | > 100 | > 100 | > 100
17 | Cc1c(-c2ccccc2)[nH]n(C2=NCCN2)c1=O |  | > 100 | > 100 |  |  | > 100 | > 100 | > 100 | > 100 | > 100 | > 100 | > 100
18 | COc1nc2c(N3CCCC3)nc(N3CCNCC3)nc2nc1NCc1ccccc1 |  | 4.65 | 2.9 |  |  | 6.72 | 3.11 | 8.8 | 3.37 | 3.19 | 6.42 | 3.72
19 | CCNc1ncnc2sc(SCc3ccccc3)nc12 |  | > 100 | > 100 |  |  | > 100 | > 100 | > 100 | > 100 | > 100 | > 100 | > 100
20 | CC(C)/C(Cl)=N/OC(=O)Nc1ccc(OC(F)(F)F)cc1 |  | 35.9 | 5.89 |  |  | 5.08 | 28.1 | 9.55 | 8.44 | 25.8 | 30.4 | 32.5
21 | Clc1ccc(/C(=C\c2ccccc2)Cn2ccnc2)cc1 |  | 30.1 | 22.9 |  |  | > 100 | 30.3 | 30.1 | > 100 | 69.9 | 31.9 | 26.8
22 | CN(C)CCCNC(=O)c1c(O)c2ccccc2n(C)c1=O |  | > 100 | > 100 |  |  | > 100 | > 100 | > 100 | > 100 | > 100 | > 100 | > 100
23 | COc1ccc(OC)c2sc(N3C(=O)/C(=C/c4cccc([N+](=O)[O-])c4)N=C3c3ccccc3)nc12 |  | > 100 | 62.1 |  |  | 78.2 | > 100 | > 100 | 70.3 | 64.2 | > 100 | > 100
24 | C[C@H]1[C@H](C)CC[C@]2(C(=O)OC3OC(CO)C(O)C(O)C3O)CC[C@]3(C)C(=CC[C@@H]4[C@@]5(C)C[C@H]6OC(=O)c7cc(O)c(O)c(O)c7-c7c(cc(O)c(O)c7O)C(=O)O[C@@H]6C(CO)(CO)[C@@H]5CC[C@]43C)[C@H]12 (some centres undefined) |  | > 56 | 34.5 |  |  | > 92.3 | > 100 | > 84.1 | > 96.3 | > 100 | > 100 | 33
25 | CC(C)[Si](OC/C(=C/COC(C)(C)C)[C@H]1CC=C(C(=O)c2ccccc2N2CN(C)C(=O)N(C)C2)C1)(C(C)C)C(C)C |  | 18.7 | 4.06 |  |  | > 100 | 28.9 | 23.5 | 5.95 | 23.6 | 18.1 | 26.6
26 | C(=C\c1ccccc1)/COc1ccccc1C(N1CCOCC1)n1nc2ccccc2n1 (centres undefined) |  | 10.7 | 13.5 |  |  | 6.14 | 24.2 | 43.7 | 5.49 | 43.8 | 10.9 | 15
27 | O=C1C(C(O)(C(F)(F)F)C(F)(F)F)CCC1C(O)(C(F)(F)F)C(F)(F)F (centres undefined) |  | > 29.3 | 10.6 |  |  | > 100 | 11 | 19.8 | 43.8 | 2.13 | 98.3 | 17.9
28 | CCN(CCCl)c1cc(CN(C)C)cc(NC(=O)c2ccc(C(=O)Nc3cccc(CN(C)C)c3)cc2)c1 |  | 6.87 | 0.569 |  |  | 0.669 | 1.61 | > 100 | 1.56 | 10.1 | 0.733 | > 100
